Results as given in patent publication US20250236639A1, “NEUROACTIVE STEROIDS AND COMPOSITIONS THEREOF” (Sage Therapeutics, Inc., priority 2019, published 2025).
pIC50: −log10 of the molar value.

target: GABAA receptor; assay: Steroid inhibition of [35S]-TBPS binding, rat brain cortical membranes; conditions: 3 nM [35S]-TBPS, in the presence of 5 mM GABA
Method: [^35S]-t-Butylbicyclophosphorothionate (TBPS) binding assays using rat brain cortical membranes in the presence of 5 mM GABA has been described (Gee et al, J. Pharmacol. Exp. Ther. 1987, 241, 346-353; Hawkinson et al, Mol. Pharmacol. 1994, 46, 977-985; Lewin, A. H et al., Mol. Pharmacol. 1989, 35, 189-194).
Briefly, cortices are rapidly removed following decapitation of carbon dioxide-anesthetized Sprague-Dawley rats (200-250 g). The cortices are homogenized in 10 volumes of ice-cold 0.32 M sucrose using a glass/teflon homogenizer and centrifuged at 1500×g for 10 min at 4° C. The resultant supernatants are centrifuged at 10,000×g for 20 min at 4° C. to obtain the P2 pellets. The P2 pellets are resuspended in 200 mM NaCl/50 mM Na—K phosphate pH 7.4 buffer and centrifuged at 10,000×g for 10 min at 4° C. This washing procedure is repeated twice and the pellets are resuspended in 10 volumes of buffer. Aliquots ([…]) of the membrane suspensions are incubated with 3 nM [^35S]-TBPS and […] aliquots of test drug dissolved in dimethyl sulfoxide (DMSO) (final 0.5%) in the presence of 5 mM GABA. The incubation is brought to a final volume of 1.0 mL with buffer. Nonspecific binding is determined in the presence of […] and ranged from 15 to 25%. Following a 90 min incubation at room temp, the assays are terminated by filtration through glass fiber filters (Schleicher and Schuell No. 32) using a cell harvester (Brandel) and rinsed three times with ice-cold buffer. Filter bound radioactivity is measured by liquid scintillation spectrometry. Non-linear curve fitting of the overall data for each drug averaged for each concentration is done using Prism (GraphPad). […] The concentration of test compound producing 50% inhibition (IC50) of specific binding and the maximal extent of inhibition (Imax) are determined for the individual experiments with the same model used for the overall data and then the means±SEM.s of the individual experiments are calculated.
Various compounds are or can be screened to determine their potential as modulators of [^35S]-TBPS binding in vitro. These assays are or can be performed in accordance with the above

Q: With `CCOC[C@@]1(O)CC[C@H]2[C@H](CC[C@@H]3[C@@H]2CC[C@@]2(C)[C@H]3CC[C@@H]2[C@@](C)(O)Cn2cc(C#N)cn2)C1` [Compound 16, 1-((R)-2-((3R,5R,8R,9R,10S,13S,14S,17S)-3-(ethoxymethyl)-3-hydroxy-13-methylhexadecahydro-1H-cyclopenta[a]phenanthren-17-yl)-2-hydroxypropyl)-1H-pyrazole-4-carbonitrile] as the compound, how does the pIC50 read?
A: Its pIC50 is greater than 7.00.

Q: `CCC[C@@]1(O)CC[C@@]2(C)[C@@H](CC[C@@H]3[C@@H]2CC[C@@]2(C)[C@H]3CC[C@@H]2[C@](C)(O)Cn2cc(C#N)cn2)C1` [Compound 17, 1-((S)-2-hydroxy-2-((3R,5S,8R,9S,10S,13S,14S,17S)-3-hydroxy-10,13-dimethyl-3-propylhexadecahydro-1H-cyclopenta[a]phenanthren-17-yl)propyl)-1H-pyrazole-4-carbonitrile] was tested. Which pIC50 did it give?
A: Its pIC50 is 6.00 to 7.00.

Q: With `COC[C@@]1(O)CC[C@H]2[C@@H](CC[C@@H]3[C@@H]2CC[C@@]2(C)[C@H]3CC[C@@H]2[C@](C)(O)Cn2cc(C#N)cn2)C1` [Compound 19, 1-((S)-2-hydroxy-2-((3R,5S,8R,9R,10S,13S,14S,17S)-3-hydroxy-3-(methoxymethyl)-13-methylhexadecahydro-1H-cyclopenta[a]phenanthren-17-yl)propyl)-1H-pyrazole-4-carbonitrile] as the compound, how does the pIC50 read?
A: Its pIC50 is greater than 7.00.

Q: With `COC[C@@]1(O)CC[C@H]2[C@@H](CC[C@@H]3[C@@H]2CC[C@@]2(C)[C@H]3CC[C@@H]2[C@@](C)(O)Cn2cc(C#N)cn2)C1` [Compound 20, 1-((R)-2-hydroxy-2-((3R,5S,8R,9R,10S,13S,14S,17S)-3-hydroxy-3-(methoxymethyl)-13-methylhexadecahydro-1H-cyclopenta[a]phenanthren-17-yl)propyl)-1H-pyrazole-4-carbonitrile] as the compound, how does the pIC50 read?
A: The pIC50 was 6.00 to 7.00.

Q: With `C[C@@]1(O)CC[C@H]2[C@H](CC[C@@H]3[C@@H]2CC[C@]2(C)[C@@H](C(F)(F)Cn4cc(C#N)cn4)CC[C@@H]32)C1` [Compound 21, 1-(2,2-difluoro-2-((3R,5R,8R,9R,10S,13S,14S,17S)-3-hydroxy-3,13-dimethylhexadecahydro-1H-cyclopenta[a]phenanthren-17-yl)ethyl)-1H-pyrazole-4-carbonitrile] as the compound, how does the pIC50 read?
A: The pIC50 was greater than 7.00.

Q: `CCC[C@@]1(O)CC[C@H]2[C@H](CC[C@@H]3[C@@H]2CC[C@@]2(C)[C@H]3CC[C@@H]2[C@](C)(O)Cn2ccc(C#N)n2)C1` [Compound 22, 1-((S)-2-hydroxy-2-((3R,5R,8R,9R,10S,13S,14S,17S)-3-hydroxy-13-methyl-3-propylhexadecahydro-1H-cyclopenta[a]phenanthren-17-yl)propyl)-1H-pyrazole-3-carbonitrile] was tested. Which pIC50 did it give?
A: Its pIC50 is greater than 7.00.

Q: How did the pIC50 turn out when `CCC[C@@]1(O)CC[C@H]2[C@H](CC[C@@H]3[C@@H]2CC[C@@]2(C)[C@H]3CC[C@@H]2[C@@](C)(O)Cn2ccc(C#N)n2)C1` [Compound 23, 1-((R)-2-hydroxy-2-((3R,5R,8R,9R,10S,13S,14S,17S)-3-hydroxy-13-methyl-3-propylhexadecahydro-1H-cyclopenta[a]phenanthren-17-yl)propyl)-1H-pyrazole-3-carbonitrile] was run?
A: The pIC50 was 6.00 to 7.00.

Q: `CCOC[C@@]1(O)CC[C@@]2(C)[C@H](CC[C@@H]3[C@@H]2CC[C@@]2(C)[C@H]3CC[C@@H]2[C@](C)(O)Cn2cc(C#N)cn2)C1` [Compound 24, 1-((S)-2-((3R,5R,8R,9S,10S,13S,14S,17S)-3-(ethoxymethyl)-3-hydroxy-10,13-dimethylhexadecahydro-1H-cyclopenta[a]phenanthren-17-yl)-2-hydroxypropyl)-1H-pyrazole-4-carbonitrile] was tested. Which pIC50 did it give?
A: The pIC50 was greater than 7.00.

Q: `CCOC[C@@]1(O)CC[C@@]2(C)[C@H](CC[C@@H]3[C@@H]2CC[C@@]2(C)[C@H]3CC[C@@H]2[C@@](C)(O)Cn2cc(C#N)cn2)C1` [Compound 25, 1-((R)-2-((3R,5R,8R,9S,10S,13S,14S,17S)-3-(ethoxymethyl)-3-hydroxy-10,13-dimethylhexadecahydro-1H-cyclopenta[a]phenanthren-17-yl)-2-hydroxypropyl)-1H-pyrazole-4-carbonitrile] was tested. Which pIC50 did it give?
A: The pIC50 was 6.00 to 7.00.

Q: With `CCC[C@@]1(O)CC[C@@]2(C)[C@H](CC[C@@H]3[C@@H]2CC[C@@]2(C)[C@H]3CC[C@@H]2[C@](C)(O)Cn2cc(C#N)cn2)C1` [Compound 26, 1-((S)-2-hydroxy-2-((3R,5R,8R,9S,10S,13S,14S,17S)-3-hydroxy-10,13-dimethyl-3-propylhexadecahydro-1H-cyclopenta[a]phenanthren-17-yl)propyl)-1H-pyrazole-4-carbonitrile] as the compound, how does the pIC50 read?
A: Its pIC50 is greater than 7.00.

Q: How did the pIC50 turn out when `CCC[C@@]1(O)CC[C@@]2(C)[C@H](CC[C@@H]3[C@@H]2CC[C@@]2(C)[C@H]3CC[C@@H]2[C@@](C)(O)Cn2cc(C#N)cn2)C1` [Compound 27, 1-((R)-2-hydroxy-2-((3R,5R,8R,9S,10S,13S,14S,17S)-3-hydroxy-10,13-dimethyl-3-propylhexadecahydro-1H-cyclopenta[a]phenanthren-17-yl)propyl)-1H-pyrazole-4-carbonitrile] was run?
A: The pIC50 was 6.00 to 7.00.

Q: `C[C@@]1(O)CC[C@H]2[C@H](CC[C@@H]3[C@@H]2CC[C@]2(C)[C@@H](C4(Cn5cc(C#N)cn5)COC4)CC[C@@H]32)C1` [Compound 28, 1-((3-((3R,5R,8R,9R,10S,13S,14S,17S)-3-hydroxy-3,13-dimethylhexadecahydro-1H-cyclopenta[a]phenanthren-17-yl)oxetan-3-yl)methyl)-1H-pyrazole-4-carbonitrile] was tested. Which pIC50 did it give?
A: Its pIC50 is greater than 7.00.

Q: `COC[C@@]1(O)CC[C@H]2[C@H](CC[C@@H]3[C@@H]2CC[C@@]2(C)[C@H]3CC[C@@H]2[C@](C)(O)Cn2cc(C#N)cn2)C1` [Compound 29, 1-((S)-2-hydroxy-2-((3R,5R,8R,9R,10S,13S,14S,17S)-3-hydroxy-3-(methoxymethyl)-13-methylhexadecahydro-1H-cyclopenta[a]phenanthren-17-yl)propyl)-1H-pyrazole-4-carbonitrile] was tested. Which pIC50 did it give?
A: The pIC50 was greater than 7.00.

Q: With `COC[C@@]1(O)CC[C@H]2[C@H](CC[C@@H]3[C@@H]2CC[C@@]2(C)[C@H]3CC[C@@H]2[C@@](C)(O)Cn2cc(C#N)cn2)C1` [Compound 30, 1-((R)-2-hydroxy-2-((3R,5R,8R,9R,10S,13S,14S,17S)-3-hydroxy-3-(methoxymethyl)-13-methylhexadecahydro-1H-cyclopenta[a]phenanthren-17-yl)propyl)-1H-pyrazole-4-carbonitrile] as the compound, how does the pIC50 read?
A: Its pIC50 is 6.00 to 7.00.

Q: With `CC(=O)c1cnn(C[C@@](C)(O)[C@H]2CC[C@H]3[C@@H]4CC[C@@H]5C[C@](C)(O)CC[C@@H]5[C@H]4CC[C@@]32C)c1` [Compound 31, 1-(1-((S)-2-hydroxy-2-((3R,5R,8R,9R,10S,13S,14S,17S)-3-hydroxy-3,13-dimethylhexadecahydro-1H-cyclopenta[a]phenanthren-17-yl)propyl)-1H-pyrazol-4-yl)ethanone] as the compound, how does the pIC50 read?
A: The pIC50 was greater than 7.00.

Q: `CC[C@H]1C[C@H]2[C@H](CC[C@@H]3[C@@H]2CC[C@@]2(C)[C@H]3CC[C@@H]2[C@](C)(O)Cn2cc(C#N)cn2)C[C@]1(C)O` [Compound 34, 1-((S)-2-((2S,3S,5R,8R,9R,10S,13S,14S,17S)-2-ethyl-3-hydroxy-3,13-dimethylhexadecahydro-1H-cyclopenta[a]phenanthren-17-yl)-2-hydroxypropyl)-1H-pyrazole-4-carbonitrile] was tested. Which pIC50 did it give?
A: Its pIC50 is greater than 7.00.

Q: How did the pIC50 turn out when `CC[C@H]1C[C@H]2[C@H](CC[C@@H]3[C@@H]2CC[C@@]2(C)[C@H]3CC[C@@H]2[C@@](C)(O)Cn2cc(C#N)cn2)C[C@]1(C)O` [Compound 35, 1-((R)-2-((2S,3S,5R,8R,9R,10S,13S,14S,17S)-2-ethyl-3-hydroxy-3,13-dimethylhexadecahydro-1H-cyclopenta[a]phenanthren-17-yl)-2-hydroxypropyl)-1H-pyrazole-4-carbonitrile] was run?
A: The pIC50 was 6.00 to 7.00.

Q: With `CCC[C@@]1(O)CC[C@H]2[C@H](CC[C@@H]3[C@@H]2CC[C@@]2(C)[C@H]3CC[C@@H]2[C@@](C)(Cn2cc(C#N)cn2)OC)C1` [Compound 36, 1-((S)-2-((3R,5R,8R,9R,10S,13S,14S,17S)-3-hydroxy-13-methyl-3-propylhexadecahydro-1H-cyclopenta[a]phenanthren-17-yl)-2-methoxypropyl)-1H-pyrazole-4-carbonitrile] as the compound, how does the pIC50 read?
A: Its pIC50 is 6.00 to 7.00.
